Like-named read-outs stand apart in the source and are kept apart here. Values belong to the compound of their own block, whether it stands above or below them.
Legend:
[1] = Serum protease stability in 10% fetal calf serum (RP-HPLC); type: in vitro ADME; details: 10% FCS
Description: The stability of the peptide iVR1-Cys in 10% serum (fetal calf serum, FCS) in a 50 mM phosphate buffer solution, pH 7.3, at 168 h was determined as described by Ponticelli et al., relying on a method based on RP-HPLC chromatography, described therein [Ponticelli et al., J Biol Chem. 2008 Dec. 5; 283 (49): 34250-9].
The reference curve was constructed by dissolving the compound in DMSO at increasing concentrations of between 0.1 μmol/L and 1000 μmol/L in order to have complete dissolution. The concentration of the molecule left in contact with 10% FCS at the initial concentration of 10 μmol/L was then determined by drawing 3 aliquots at time t=0, then every hour in the first 12 hours and then at 24, 72, 120, and 168 h. The aliquots were diluted 1:1 with acetic acid 0.1 M in order to detach any peptide bound to the albumin, centrifuged to remove any precipitated materials and analyzed by RP-HPLC under the conditions reported in Ponticelli et al. The amount of residual peptide detected in the aliquots, expressed as a percentage relative to the initial amount, was plotted as a function of time. The results are shown in Table VII as the mean of the three determinations±the standard deviation (SD).

[2] = target: T1, VEGF-A/VEGFR-1 interaction (Homo sapiens, UniProt P17948); assay: ELISA competition assay of VEGF-A binding to VEGFR-1; details: for binding % (VEGF-A/VEGFR-1 interaction): residual binding
T1 construct: the form consisting of the seven extracellular domains of the receptor fused to the Fc domain of human lgG; purchased R&D Systems 321-FL (receptor); 293-VE (VEGF-A)
Description: The binding reaction was conducted for one hour at 37° C., followed by one hour at room temperature. At the end of the binding and/or competition step, anti-human-PIGF biotinylated polyclonal antibodies (R&D Systems, cat No. BAF264) or anti-human-VEGF-A (R&D Systems, cat No. BAF293) were added to the wells at the concentration of 300 ng/ml in PBET. After one hour of incubation at 37° C. followed by one hour at room temperature, an HRP-conjugated avidin-streptavidin system (Vectastain elite ABC kit) and a substrate for HRP (o-phenylenediamine-Sigma, cat No. P1526) were added to the wells. Quantization was performed by determining the absorbance at 490 nm. Any inhibitory activity of the peptides was expressed in terms of % of residual binding, comparing the data obtained for the binding of PIGF or VEGF-A to the receptors in the presence of the tetrameric peptides with those in the absence of the same. iVR1 represented the positive control of the inhibition of the PIGF/VEGFR-1 or VEGF-A/VEGFR-1 interaction.

PIGF/VEGFR-1 interaction = target: T2, PIGF/VEGFR-1 interaction (Homo sapiens, UniProt P17948); assay: ELISA competition assay of PIGF binding to VEGFR-1; details: for binding % (PIGF/VEGFR-1 interaction): residual binding
T2 construct: the form consisting of the seven extracellular domains of the receptor fused to the Fc domain of human lgG; purchased R&D Systems 321-FL (receptor); 264-PG (PlGF)
Description: The assay to test the binding of PIGF or VEGF-A with the VEGFR-1 receptor is based on the ELISA method [Ponticelli et al., JBC. 2008 Dec. 5; 283 (49): 34250-9] and was performed using reagents acquired from R&D Systems.
The human recombinant receptor VEGFR-1, in particular the form consisting of the seven extracellular domains of the receptor fused to the Fc domain of human lgG (R&D Systems, cat N° 321-FL), was made to adhere in the wells of 96-well microplates at a concentration of 0.5 μg/ml in PBS pH 7.5 (100 μl/well) for 16 hours at room temperature (RT).
After the non-specific binding sites had been blocked in the wells using a buffer solution consisting of PBS pH 7.5 containing 3% BSA, 5 ng/ml of recombinant PIGF (R&D Systems, cat N° 264-PG), or 5 ng/ml of recombinant VEGF-A (R&D Systems, cat N° 293-VE) of human origin in PBET (PBS pH 7.5, BSA 0.1%, EDTA 5 mM, Tween 0.004%) were added to the wells with the adhered receptor.
Simultaneously with the ligands, i.e., PIGF or VEGF-A, graduated doses of iVR1, iVR1-Cys or a control peptide (PC-[(S-Ser)-(S-Ala)-(S-Cha) tripeptide with a tetrameric structure identical to the structure of the iVR1 peptides]) were added at concentrations comprised between 780 and 50000 nM. The binding reaction was conducted for one hour at 37° C., followed by one hour at room temperature.
At the end of the binding and/or competition step, anti-human-PIGF biotinylated polyclonal antibodies (R&D Systems, cat No. BAF264) or anti-human-VEGF-A (R&D Systems, cat No. BAF293) were added to the wells at the concentration of 300 ng/ml in PBET. After one hour of incubation at 37° C. followed by one hour at room temperature, an HRP-conjugated avidin-streptavidin system (Vectastain elite ABC kit) and a substrate for HRP (o-phenylenediamine-Sigma, cat No. P1526) were added to the wells. Quantization was performed by determining the absorbance at 490 nm.
Any inhibitory activity of the peptides was expressed in terms of % of residual binding, comparing the data obtained for the binding of PIGF or VEGF-A to the receptors in the presence of the tetrameric peptides with those in the absence of the same. iVR1 represented the positive control of the inhibition of the PIGF/VEGFR-1 or VEGF-A/VEGFR-1 interaction.

VEGFR1 = VEGFR1 (Homo sapiens, UniProt P17948); details: cited from earlier work
Chain of VEGFR1 (P17948 27-1338): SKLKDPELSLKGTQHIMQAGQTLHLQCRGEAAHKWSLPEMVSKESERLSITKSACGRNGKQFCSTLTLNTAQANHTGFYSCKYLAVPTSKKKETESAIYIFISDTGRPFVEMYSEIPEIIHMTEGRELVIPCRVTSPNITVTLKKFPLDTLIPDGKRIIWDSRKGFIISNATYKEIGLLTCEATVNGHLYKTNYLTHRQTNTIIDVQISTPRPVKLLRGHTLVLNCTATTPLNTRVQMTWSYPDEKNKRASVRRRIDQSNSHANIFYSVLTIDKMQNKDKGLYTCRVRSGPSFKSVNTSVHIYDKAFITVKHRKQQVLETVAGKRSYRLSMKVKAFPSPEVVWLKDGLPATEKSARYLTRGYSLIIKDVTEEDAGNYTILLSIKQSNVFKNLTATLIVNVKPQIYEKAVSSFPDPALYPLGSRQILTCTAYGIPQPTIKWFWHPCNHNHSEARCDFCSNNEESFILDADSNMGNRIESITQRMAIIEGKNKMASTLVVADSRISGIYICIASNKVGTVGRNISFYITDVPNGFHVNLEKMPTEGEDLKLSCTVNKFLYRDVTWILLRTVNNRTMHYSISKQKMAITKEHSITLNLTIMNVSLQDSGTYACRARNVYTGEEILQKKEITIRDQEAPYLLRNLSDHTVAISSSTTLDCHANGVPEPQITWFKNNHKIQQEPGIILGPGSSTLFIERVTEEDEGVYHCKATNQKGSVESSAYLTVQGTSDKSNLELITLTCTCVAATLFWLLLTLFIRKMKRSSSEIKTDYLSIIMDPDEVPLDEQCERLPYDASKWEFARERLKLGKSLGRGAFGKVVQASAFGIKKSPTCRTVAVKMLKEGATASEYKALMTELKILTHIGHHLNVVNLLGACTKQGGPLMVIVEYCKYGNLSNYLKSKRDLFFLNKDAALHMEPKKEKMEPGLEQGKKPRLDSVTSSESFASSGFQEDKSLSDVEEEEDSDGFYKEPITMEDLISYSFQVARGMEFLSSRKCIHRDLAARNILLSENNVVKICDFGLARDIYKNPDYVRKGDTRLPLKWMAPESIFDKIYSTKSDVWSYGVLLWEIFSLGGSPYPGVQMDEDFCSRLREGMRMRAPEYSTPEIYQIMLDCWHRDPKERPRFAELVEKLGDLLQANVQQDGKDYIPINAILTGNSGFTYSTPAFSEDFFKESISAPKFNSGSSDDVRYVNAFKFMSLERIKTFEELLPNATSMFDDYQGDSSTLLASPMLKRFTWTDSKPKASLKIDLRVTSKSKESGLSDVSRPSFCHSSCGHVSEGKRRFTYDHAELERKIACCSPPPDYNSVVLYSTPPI

T1 sequence (P17948 27-758 limits assumed): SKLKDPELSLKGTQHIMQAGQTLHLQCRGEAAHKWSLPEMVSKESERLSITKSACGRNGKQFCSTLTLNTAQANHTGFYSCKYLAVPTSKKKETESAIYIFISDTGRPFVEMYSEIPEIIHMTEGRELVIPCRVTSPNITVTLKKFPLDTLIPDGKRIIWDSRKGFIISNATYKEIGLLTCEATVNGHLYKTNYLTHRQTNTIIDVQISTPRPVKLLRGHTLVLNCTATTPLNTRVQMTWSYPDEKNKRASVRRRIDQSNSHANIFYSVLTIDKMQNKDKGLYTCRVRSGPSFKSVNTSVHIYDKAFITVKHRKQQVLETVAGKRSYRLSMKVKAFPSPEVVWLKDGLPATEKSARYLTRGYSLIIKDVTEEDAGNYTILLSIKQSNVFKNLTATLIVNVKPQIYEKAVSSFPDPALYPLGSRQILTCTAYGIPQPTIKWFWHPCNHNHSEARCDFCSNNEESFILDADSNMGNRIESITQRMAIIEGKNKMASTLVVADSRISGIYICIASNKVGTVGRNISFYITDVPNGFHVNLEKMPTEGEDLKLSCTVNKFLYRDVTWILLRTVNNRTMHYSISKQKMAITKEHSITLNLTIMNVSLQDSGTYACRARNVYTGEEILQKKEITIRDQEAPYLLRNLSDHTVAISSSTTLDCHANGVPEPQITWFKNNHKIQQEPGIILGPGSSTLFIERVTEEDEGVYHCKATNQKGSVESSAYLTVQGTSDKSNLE
T2 sequence (P17948 27-758 limits assumed): as above

% residual peptide ± SD ([1]; 0 h, 50 mM phosphate buffer pH 7.3, initial 10 μmol/L): 101 ± 4%
remaining at 1 h, 10 μmol/L ([1]; calf (bovine), 10% fetal calf serum, 1 h, pH 7.3, read-out: % residual peptide ± SD): 100 ± 11%
remaining at 2 h, 10 μmol/L ([1]; calf (bovine), 10% fetal calf serum, 2 h, pH 7.3, read-out: % residual peptide ± SD): 99 ± 7%
remaining at 3 h, 10 μmol/L ([1]; calf (bovine), 10% fetal calf serum, 3 h, pH 7.3, read-out: % residual peptide ± SD): 98 ± 5%
remaining at 4 h, 10 μmol/L ([1]; calf (bovine), 10% fetal calf serum, 4 h, pH 7.3, read-out: % residual peptide ± SD): 97 ± 4%
remaining at 5 h, 10 μmol/L ([1]; calf (bovine), 10% fetal calf serum, 5 h, pH 7.3, read-out: % residual peptide ± SD): 96 ± 5%
remaining at 6 h, 10 μmol/L ([1]; calf (bovine), 10% fetal calf serum, 6 h, pH 7.3, read-out: % residual peptide ± SD): 99 ± 6%
remaining at 7 h, 10 μmol/L ([1]; calf (bovine), 10% fetal calf serum, 7 h, pH 7.3, read-out: % residual peptide ± SD): 95 ± 8%
remaining at 8 h, 10 μmol/L ([1]; calf (bovine), 10% fetal calf serum, 8 h, pH 7.3, read-out: % residual peptide ± SD): 96 ± 5%
remaining at 9 h, 10 μmol/L ([1]; calf (bovine), 10% fetal calf serum, 9 h, pH 7.3, read-out: % residual peptide ± SD): 95 ± 6%
remaining at 10 h, 10 μmol/L ([1]; calf (bovine), 10% fetal calf serum, 10 h, pH 7.3, read-out: % residual peptide ± SD): 94 ± 10%
remaining at 11 h, 10 μmol/L ([1]; calf (bovine), 10% fetal calf serum, 11 h, pH 7.3, read-out: % residual peptide ± SD): 94 ± 8%
remaining at 12 h, 10 μmol/L ([1]; calf (bovine), 10% fetal calf serum, 12 h, pH 7.3, read-out: % residual peptide ± SD): 93 ± 4%
remaining at 24 h, 10 μmol/L ([1]; calf (bovine), 10% fetal calf serum, 24 h, pH 7.3, read-out: % residual peptide ± SD): 93 ± 6%
remaining at 72 h, 10 μmol/L ([1]; calf (bovine), 10% fetal calf serum, 72 h, pH 7.3, read-out: % residual peptide ± SD): 92 ± 7%
remaining at 120 h, 10 μmol/L ([1]; calf (bovine), 10% fetal calf serum, 120 h, pH 7.3, read-out: % residual peptide ± SD): 91 ± 5%
remaining at 168 h, 10 μmol/L ([1]; calf (bovine), 10% fetal calf serum, 168 h, pH 7.3, read-out: % residual peptide ± SD): 92 ± 8%
Structure (SMILES): N[C@H](CCC(=O)O)C(=O)N[C@@H](CSCc1ccccc1)C(=O)N[C@@H](CC1CCCCC1)C(=O)NCCCC[C@H](NC(=O)[C@H](CC1CCCCC1)NC(=O)[C@H](CSCc1ccccc1)NC(=O)[C@H](N)CCC(=O)O)C(=O)NCCCC[C@H](NC(=O)[C@H](CCCCNC(=O)[C@H](CC1CCCCC1)NC(=O)[C@H](CSCc1ccccc1)NC(=O)[C@H](N)CCC(=O)O)NC(=O)[C@H](CC1CCCCC1)NC(=O)[C@H](CSCc1ccccc1)NC(=O)[C@H](N)CCC(=O)O)C(=O)N[C@H](CS)C(=O)O [iVR1-Cys]

binding % (VEGF-A/VEGFR-1 interaction) ([2]; peptide 780 nM): 98.36%
binding % (VEGF-A/VEGFR-1 interaction) ([2]; peptide 1560 nM): 96.21%
binding % (VEGF-A/VEGFR-1 interaction) ([2]; peptide 3125 nM): 93.93%
binding % (VEGF-A/VEGFR-1 interaction) ([2]; peptide 6250 nM): 66.00%
binding % (VEGF-A/VEGFR-1 interaction) ([2]; peptide 12500 nM): 37.02%
binding % (VEGF-A/VEGFR-1 interaction) ([2]; peptide 25000 nM): 21.45%
binding % (VEGF-A/VEGFR-1 interaction) ([2]; peptide 50000 nM): 8.60%
IC50 ([2]; read-out: IC50 for VEGF-A/VEGFR-1 inhibition): ~10 µM
binding % (PIGF/VEGFR-1 interaction) (PIGF/VEGFR-1 interaction; peptide 780 nM): 99.36%
binding % (PIGF/VEGFR-1 interaction) (PIGF/VEGFR-1 interaction; peptide 1560 nM): 101.32%
binding % (PIGF/VEGFR-1 interaction) (PIGF/VEGFR-1 interaction; peptide 3125 nM): 96.10%
binding % (PIGF/VEGFR-1 interaction) (PIGF/VEGFR-1 interaction; peptide 6250 nM): 68.49%
binding % (PIGF/VEGFR-1 interaction) (PIGF/VEGFR-1 interaction; peptide 12500 nM): 44.57%
binding % (PIGF/VEGFR-1 interaction) (PIGF/VEGFR-1 interaction; peptide 25000 nM): 36.02%
binding % (PIGF/VEGFR-1 interaction) (PIGF/VEGFR-1 interaction; peptide 50000 nM): 26.26%
IC50 (PIGF/VEGFR-1 interaction; read-out: IC50 of inhibition of the interaction of PIGF with VEGFR-1): ~10 µM
Structure (SMILES): N[C@H](CCC(=O)O)C(=O)N[C@@H](CSCc1ccccc1)C(=O)N[C@@H](CC1CCCCC1)C(=O)NCCCC[C@H](NC(=O)[C@H](CC1CCCCC1)NC(=O)[C@H](CSCc1ccccc1)NC(=O)[C@H](N)CCC(=O)O)C(=O)NCCCC[C@H](NC(=O)[C@H](CCCCNC(=O)[C@H](CC1CCCCC1)NC(=O)[C@H](CSCc1ccccc1)NC(=O)[C@H](N)CCC(=O)O)NC(=O)[C@H](CC1CCCCC1)NC(=O)[C@H](CSCc1ccccc1)NC(=O)[C@H](N)CCC(=O)O)C(=O)NCC(=O)O [iVR1]
IC50 (VEGFR1; in vitro, reported by Ponticelli et al., read-out: IC50 of inhibition of the interaction of PIGF, VEGF-A and VEGF-B with VEGFR1): ~10 µM
IC50 (VEGFR1; reported in Ponticelli et al., read-out: affinity towards VEGFR1 (expressed as IC50)): ≥ 10 µM

Source: patent publication US12441765B2, “Peptides and medical uses thereof” (Anbition S.R.L., priority 2018, dated 2025)
